Test results taken from article PMC7583961, “Development and Validation of an LC-MS/MS Assay to Quantitate 2′,4′,6′-Trihydroxyacetophenone in Rat and Dog Plasma and its Application to a Pharmacokinetic Study” (Molecules, 2020).

Columns and labels:
[1] = Pharmacokinetic study of orally administered THAP in rats (LC-MS/MS of plasma, noncompartmental analysis); type: in vivo, Sprague Dawley rats; details: for AUC(0-t) / Cmax / Tmax / half-life: plasma, rat, mean ± SD, n = 5
Experimental: (§1) Healthy Sprague Dawley rats (n = 15, mean ± SD weight 261.4 ± 6.8 g) and beagle dogs (n = 10, mean ± SD weight 9.85 ± 0.60 kg) were purchased from Orient Bio Inc. (Seongnam, Korea). The animals were kept in a light-controlled room at 22 ± 2 °C with relative humidity of 55 ± 5% in the Animal Center of Korea Preclinical Center (Gyeonggi-do, Korea). The pharmacokinetic study protocols (KPC-E2019099 for rats and KPC-M2019046 for dogs) were approved by the Animal Care and Use Committee of the Korea Preclinical Center (Gyeonggi-do, Korea).
(§2) Chromatographic separation was performed using an Agilent 1200 Series HPLC (Agilent Technologies, Inc., Palo Alto, CA, USA) system with a Gemini C18 column (50 × 2.0 mm, 3 µm, Phenomenex, Torrance, CA, USA) protected by a guard column at 40 °C. The mobile phase composed of 10 mM ammonium formate in water and methanol (10:90, v/v) was isocratically pumped into the HPLC system at a flow rate of 0.2 mL/min with a total run time of 2.5 min. The column was eluted into an API 4000 triple quadrupole mass spectrometer (Applied Biosystems, Framingham, Massachusetts, USA), operating in the multiple reaction monitoring (MRM) mode with a negative ion electrospray source. The optimized instrument settings were as follows: curtain gas flow of 20 L/h; collision gas flow of 6 L/h; ion source gas 1 pressure of 50 psi; ion source gas 2 pressure of 60 psi; ion spray voltage of −4500 V; and temperature of 500 °C. The precursor ions of THAP and IS were generated using declustering potentials of −100 and −75 V, respectively, and they were fragmented at a collision energy of −28 and −24 eV, respectively. The molecular mass transitions from precursor to product ion were optimized at m/z 166.89 > 82.8 for THAP and at 152.89 > 82.8 for IS. Data were processed using Analyst® program (Ver. 1.6.2, AB SCIEX, Toronto, ON, Canada).
(§3) Plasma samples were stored in a deep freezer at −70 °C and thawed at room temperature. An aliquot of each plasma sample (10 μL) was transferred to 1.75 mL microtubes (Axygen Scientific, Inc., California, USA). In each microtube, 20 μL of IS (2 μg/mL) and 500 μL of 100% cold acetonitrile were added and then vortexed for 10 min. After centrifugation at 20,800× g for 15 min, 50 μL of the supernatant was pipetted into a 2.0 mL microtube and diluted with 350 μL of 50% acetonitrile (v/v). After being vortexed for 10 min and centrifuged at 20,800× g at 4 °C for 10 min, a 2 μL aliquot was injected into the LC-MS/MS system for quantitation.
(§4) Male rats orally received a single dose of THAP (250, 500, or 750 mg/kg) dissolved in deionized water containing 2% CMC by gavages. Serial blood samples (0.22 mL each) were collected via the right jugular vein immediately before (0 h) and at 0.5, 1, 2, 3, 4, 6, 9, 12, 24, and 48 h (n = 5 per each sample time) post-dosing. Male dogs received a single oral dose of THAP tablet (500 mg) as either an immediate-release tablet (Group 1) or a sustained-release tablet (Group 2) (Table 5). Blood samples (1.0 mL) were drawn from a median vein of a forelimb at the following time points after the administration of THAP: 0.5, 1, 1.5, 2, 3, 4, 6, 8, 12, and 24 h (n = 5 per each sample time). After sampling blood from the animals, the cannula was flushed with an equal volume of heparinized saline solution (50 U/mL) to prevent coagulation and to replace the blood loss. Heparin was used as an anticoagulant throughout the study procedure. Plasma was harvested by centrifugation at 4 °C, 1700× g for 10 min and then stored at −70 °C before quantification. Noncompartmental analysis was performed to calculate the AUClast and T1/2 of THAP using WinNonlin version 8.1 (Pharsight Corporation, Mountain View, CA). The Cmax and Tmax of THAP were determined based on the individual plasma THAP concentration–time profiles.

[2] = Pharmacokinetic study of oral THAP IR or SR tablets in dogs (LC-MS/MS of plasma, noncompartmental analysis); type: in vivo; details: male, beagle; for AUC(0-t) / Cmax / Tmax / half-life: dog, plasma, po, 500 mg, mean ± SD, n = 5
Experimental: as §1, §2, §3, §4

[3] = Stability of THAP in rat plasma; type: in vitro ADME; details: for Plasma Stability (Mean %) Long-Term (−70 °C): 56 days; for Plasma Stability (Mean %) Long-Term (−70 °C) / Plasma Stability (Mean %) 4 °C (7 h) / Plasma Stability (Mean %) Autosampler (44 h, 10 °C) / Plasma Stability (Mean %) Freeze-Thaw Stability (5 Cycles) / Plasma Stability (Mean %) Room Temperature (7 h) / Plasma Stability (Mean %) −70 °C (7 h): n = 3
Experimental: (§5) The stability of THAP in rat and dog plasma was examined under the following conditions at concentrations of 0.3, 25, and 80 µg/mL (n = 3): freeze-thaw stability after five freeze-thaw cycles at −70 °C; short-term stability at room temperature, 4 °C, and −70 °C for 7 h; autosampler stability at 10 °C for 44 h; and long-term stability at −70 °C for 56 days and 32 days in rat and dog plasma, respectively. The stability of the stock solution at low (0.3 µg/mL) and high (80 µg/mL) QC concentrations (n = 3) stored at room temperature for 7 h was also tested by comparing their peak areas to those of freshly prepared stock solutions.

[4] = Stability of THAP in dog plasma; type: in vitro ADME; details: for Plasma Stability (Mean %) Long-Term (−70 °C): 32 days; for Plasma Stability (Mean %) Long-Term (−70 °C) / Plasma Stability (Mean %) 4 °C (7 h) / Plasma Stability (Mean %) Autosampler (44 h, 10 °C) / Plasma Stability (Mean %) Freeze-Thaw Stability (5 Cycles) / Plasma Stability (Mean %) Room Temperature (7 h) / Plasma Stability (Mean %) −70 °C (7 h): n = 3
Experimental: as §5

[5] = Stability of THAP stock solution at room temperature; type: physicochemical; details: room temperature 7 h, n = 3
Experimental: as §5

[6] = male, Sprague Dawley, oral 250 mg/kg aqueous solution (Group 1)
[7] = male, Sprague Dawley, oral 500 mg/kg aqueous solution (Group 2)
[8] = male, Sprague Dawley, oral 750 mg/kg aqueous solution (Group 3)
[9] = oral 500 mg THAP immediate-release tablet (Group 1)
[10] = oral 500 mg THAP sustained-release tablet (Group 2)
[11] = range over 0.3, 25 and 80 µg/mL

CC(=O)c1c(O)cc(O)cc1O [THAP, 2′,4′,6′-trihydroxyacetophenone]
AUC(0-t) [1, 6]: 80.9 ± 11.8 µg·h/mL | Cmax [1, 6]: 64200 ± 16300 ng/mL | Tmax [1, 6]: 0.5 h | half-life [1, 6]: 11.3 ± 0.9 h | AUC(0-t) [1, 7]: 150 ± 35.8 µg·h/mL | Cmax [1, 7]: 81300 ± 32300 ng/mL | Tmax [1, 7]: 0.5 h | half-life [1, 7]: 8.3 ± 1.2 h | AUC(0-t) [1, 8]: 302 ± 113 µg·h/mL | Cmax [1, 8]: 147000 ± 44600 ng/mL | Tmax [1, 8]: 0.5 h | half-life [1, 8]: 8 ± 1.5 h | concentration at 12 h ([1]; male, Sprague Dawley, rat plasma sample of R06, 12 h after oral administration of THAP 500 mg/kg, read-out: measured plasma concentration of THAP): 374 ng/mL | plasma THAP concentrations close to the peak concentration ([1]; rats, THAP dose of 500 mg/kg and 750 mg/kg, above ULOQ): greater than 100 µg/mL | AUC(0-t) [2, 9]: 89.9 ± 32.8 µg·h/mL | Cmax [2, 9]: 24500 ± 5000 ng/mL | Tmax [2, 9]: 1 ± 1.1 h | half-life [2, 9]: 6.1 ± 4.6 h | AUC(0-t) [2, 10]: 130 ± 49.4 µg·h/mL | Cmax [2, 10]: 18800 ± 8500 ng/mL | Tmax [2, 10]: 6 ± 1.6 h | half-life [2, 10]: 6.4 ± 1.6 h | concentration at 24 h ([2]; dog plasma sample of R05, 24 h after oral administration of THAP 500 mg immediate-release tablet, read-out: measured plasma concentration of THAP): 302 ng/mL | Plasma Stability (Mean %) Long-Term (−70 °C) ([3]; nominal 0.3 µg/mL): 111.67% | Plasma Stability (Mean %) 4 °C (7 h) ([3]; nominal 0.3 µg/mL): 99.22% | Plasma Stability (Mean %) Autosampler (44 h, 10 °C) ([3]; nominal 0.3 µg/mL): 105.00% | Plasma Stability (Mean %) Freeze-Thaw Stability (5 Cycles) ([3]; nominal 0.3 µg/mL): 101.00% | Plasma Stability (Mean %) Room Temperature (7 h) ([3]; nominal 0.3 µg/mL): 98.22% | Plasma Stability (Mean %) −70 °C (7 h) ([3]; nominal 0.3 µg/mL): 98.11% | Plasma Stability (Mean %) Long-Term (−70 °C) ([3]; nominal 25 µg/mL): 104.15% | Plasma Stability (Mean %) 4 °C (7 h) ([3]; nominal 25 µg/mL): 106.91% | Plasma Stability (Mean %) Autosampler (44 h, 10 °C) ([3]; nominal 25 µg/mL): 104.80% | Plasma Stability (Mean %) Freeze-Thaw Stability (5 Cycles) ([3]; nominal 25 µg/mL): 102.84% | Plasma Stability (Mean %) Room Temperature (7 h) ([3]; nominal 25 µg/mL): 101.62% | Plasma Stability (Mean %) −70 °C (7 h) ([3]; nominal 25 µg/mL): 109.87% | Plasma Stability (Mean %) Long-Term (−70 °C) ([3]; nominal 80 µg/mL): 99.39% | Plasma Stability (Mean %) 4 °C (7 h) ([3]; nominal 80 µg/mL): 100.98% | Plasma Stability (Mean %) Autosampler (44 h, 10 °C) ([3]; nominal 80 µg/mL): 100.58% | Plasma Stability (Mean %) Freeze-Thaw Stability (5 Cycles) ([3]; nominal 80 µg/mL): 99.62% | Plasma Stability (Mean %) Room Temperature (7 h) ([3]; nominal 80 µg/mL): 100.47% | Plasma Stability (Mean %) −70 °C (7 h) ([3]; nominal 80 µg/mL): 101.61% | long-term stability at −70 °C for 56 days [3, 11]: 99.39–111.67% | stability in the autosampler at 10 °C for 44 h [3, 11]: 100.58–105.00% | stability over five freeze-thaw cycles [3, 11]: 99.62–102.84% | Plasma Stability (Mean %) Long-Term (−70 °C) ([4]; nominal 0.3 µg/mL): 102.89% | Plasma Stability (Mean %) 4 °C (7 h) ([4]; nominal 0.3 µg/mL): 111.89% | Plasma Stability (Mean %) Autosampler (44 h, 10 °C) ([4]; nominal 0.3 µg/mL): 99.67% | Plasma Stability (Mean %) Freeze-Thaw Stability (5 Cycles) ([4]; nominal 0.3 µg/mL): 101.33% | Plasma Stability (Mean %) Room Temperature (7 h) ([4]; nominal 0.3 µg/mL): 109.89% | Plasma Stability (Mean %) −70 °C (7 h) ([4]; nominal 0.3 µg/mL): 109.56% | Plasma Stability (Mean %) Long-Term (−70 °C) ([4]; nominal 25 µg/mL): 103.95% | Plasma Stability (Mean %) 4 °C (7 h) ([4]; nominal 25 µg/mL): 105.57% | Plasma Stability (Mean %) Autosampler (44 h, 10 °C) ([4]; nominal 25 µg/mL): 106.75% | Plasma Stability (Mean %) Freeze-Thaw Stability (5 Cycles) ([4]; nominal 25 µg/mL): 105.31% | Plasma Stability (Mean %) Room Temperature (7 h) ([4]; nominal 25 µg/mL): 106.66% | Plasma Stability (Mean %) −70 °C (7 h) ([4]; nominal 25 µg/mL): 105.88% | Plasma Stability (Mean %) Long-Term (−70 °C) ([4]; nominal 80 µg/mL): 99.45% | Plasma Stability (Mean %) 4 °C (7 h) ([4]; nominal 80 µg/mL): 98.87% | Plasma Stability (Mean %) Autosampler (44 h, 10 °C) ([4]; nominal 80 µg/mL): 97.58% | Plasma Stability (Mean %) Freeze-Thaw Stability (5 Cycles) ([4]; nominal 80 µg/mL): 98.41% | Plasma Stability (Mean %) Room Temperature (7 h) ([4]; nominal 80 µg/mL): 98.17% | Plasma Stability (Mean %) −70 °C (7 h) ([4]; nominal 80 µg/mL): 97.32% | long-term stability at −70 °C for 32 days [4, 11]: 99.45–103.95% | stability in the autosampler at 10 °C for 44 h [4, 11]: 97.58–106.75% | stability over five freeze-thaw cycles [4, 11]: 98.41–105.31% | mean percentage peak area of stock solution vs freshly prepared stock solution ([5]; 0.3 µg/mL): 102.15% | mean percentage peak area of stock solution vs freshly prepared stock solution ([5]; 80 µg/mL): 100.92%
